Measurements as given in US20140243403A1, “TREATING COLORECTAL, PANCREATIC, AND LUNG CANCER” (The General Hospital Corporation, priority 2011, published 2014).

Experiments:
[1] = tested on: HT29 vector control cells; assay: Sensitivity of HT29 vector control cells; type: cell-based, human
Procedure: (§1) (E) Introduction of a V5-tagged constitutively activated (CA) mutant of the BMP receptor, BMPR1A (Q233D) or control vector in HT29 cells and effects on 5Z-7-oxozeaenol sensitivity in terms of IC50 values.
(§2) To determine whether TAK1-independent cells could be driven toward TAK1 dependency by enhanced KRAS/Wnt signaling, a series of reconstitution experiments was performed. HT29, SW620 or SKCO1 cells were infected with recombinant lentiviruses encoding either BMPR1A-CA and CTNNB1-CA or vector control (containing the ccDB gene). For BMPR1A-CA stable expression, cells were selected in 5 μg/mlBlasticidin for 7 days and pooled clones were established. Stable expression was verified using the V5 epitope tag on the BMPR1A transgene product. For CTNNB1-CA, the pWPI recombinant lentiviruses encode GFP driven by IRES. Thus, stable cell clones were obtaining by FACS live cell sorting to obtain the top 10% of GFP expressing cells. The SW620-CTNNB1-CA stable cell clones were passaged 1:5 every 2 days and assayed for KRAS dependency after the fifth passage.
(§3) To further define the role of BMP signaling in TAK1 dependency, a constitutively-activated (CA) variant (Q233D) of BMPR1A (Zou et al., 1997) was ectopically expressed in HT29 cells. […] This was accompanied by dose-dependent decreases in Axin 2 and phosphorylated Smad2 levels. […]

[2] = tested on: HT29 cells expressing mutant NRAS; assay: Sensitivity of HT29 cells expressing mutant NRAS; type: cell-based, human; details: HT29 cells with ectopic mutant NRAS
Source text: (D) Forced overexpression of epitope-tagged oncogenic G12V mutated RAS protein isoforms in HT29 cells and sensitivity to TAK1 pharmacological inhibition with 5Z-7-oxozeaenol. Expression levels of exogenous and endogenous Ras proteins are shown by immunoblotting with a pan-ras monoclonal antibody. NRAS/KRAS4B are HA-tagged and KRAS4A is V5-tagged.
These cell lines are insensitive to 5Z-7-oxozeaenol.

[3] = tested on: SK-CO-1 and SW620 (KRAS-dependent) xenografted tumors; assay: Subcutaneous xenografted tumors, KRAS-dependent; type: in vivo, NOD/SCID mice; details: 15 mg/kg daily intraperitoneal, 6 days of treatment
Procedure: (C) TAK1 inhibition in mice with xenografted human tumors derived from the HCT8/SW837 (KRAS-independent) and SK-CO-1/SW620 (KRAS-dependent) cell lines. Cells expressing firefly luciferase were injected subcutaneously into the flanks of […]. Tumors are shown as imaged by IVIS detection of luminescence counts (in photons/sec) following 14 days of tumor growth followed by 6 days of treatment with either 15 mg/kg 5z-7-oxozeaenol or vehicle ([…] in arachis oil), IP delivery q.d. Quantitation of tumor volume (mm^3) is plotted on the right. Tumor volume data are represented as the mean of 4 tumors in 2 mice for each group+/−SEM.
To validate the efficacy of 5Z-7-oxozeaenol in vivo, subcutaneous xenografted tumors were generated in NOD/SCID mice using four representative KRAS mutant cell lines: HCT8 and SW837 (KRAS-independent), and SK-CO-1 and SW620 (KRAS-dependent). Human colorectal cancer tumor cells were trypsinized and resuspended as single cell suspensions at 3×10^7 cells per ml in PBS. 100 μL (3×10^6 cells total) of this suspension were injected into opposite left and right flanks of NOD/SCID mice. All mice were housed in a pathogen-free environment. Tumor size was monitored daily and once tumor volume had reached approximately 200 mm^3, treatment with 5Z-7-oxozeaenol was initiated (7 to 14 days post-implantation). Mice were injected daily with 15 mg/kg 5Z-7-oxozeaenol. […]

[4] = tested on: KRAS mutant pancreatic ductal adenocarcinoma (PDAC) cells; assay: Sensitivity of KRAS mutant PDAC cell lines; type: cell-based; details: 5 KRAS mutant PDAC cell lines, APC wild-type
Procedure: (B) 5Z-7-oxozeaenol IC50 values for KRAS mutant PDAC and NSCLC cell lines.
To determine if sensitivity to TAK1 inhibition is specific to colon cancer-derived cell lines, sensitivity to 5Z-7-oxozeaenol was assessed in 5 KRAS mutant pancreatic ductal adenocarcinoma (PDAC) and 4 non-small cell lung cancer (NSCLC) cells, all of which are APC wild-type (FIG. 9B).

[5] = tested on: HT29 cells expressing BMPR1A-CA (Q233D); assay: Sensitivity of HT29 cells expressing BMPR1A-CA; type: cell-based, human
Procedure: as §1, §2, §3

`COc1cc(O)c2c(c1)/C=C/C[C@H](O)[C@H](O)C(=O)/C=C\C[C@H](C)OC2=O` [5Z-7-oxozeaenol] was tested, and the IC50 [1] was 7.7 µM, the “change in sensitivity to 5Z-7-oxozeaenol” value [2] was “slightly increased resistance” and the “tumor response (imaging, tumor volume)” value [3] was “remarkable regression”. The “sensitivity to 5Z-7-oxozeaenol” value [4] was “largely refractory” and the IC50 [5] was 1.1 µM.
